Data from publication PMC7123778 (ACS infectious diseases, 2019).

Legend:
[1] = tested on: H. pylori G27; settings: H. pylori G27, liquid media; cited from earlier work
[2] = cited from earlier work
[3] = molecular target: T1, rat liver TrxR (Rattus norvegicus, UniProt O89049); assay: TrxR inhibition assay; assay type: biochemical; settings: purified rat liver TrxR, DTNB, ΔA412 after 10 minutes
T1 sequence (O89049 1-499): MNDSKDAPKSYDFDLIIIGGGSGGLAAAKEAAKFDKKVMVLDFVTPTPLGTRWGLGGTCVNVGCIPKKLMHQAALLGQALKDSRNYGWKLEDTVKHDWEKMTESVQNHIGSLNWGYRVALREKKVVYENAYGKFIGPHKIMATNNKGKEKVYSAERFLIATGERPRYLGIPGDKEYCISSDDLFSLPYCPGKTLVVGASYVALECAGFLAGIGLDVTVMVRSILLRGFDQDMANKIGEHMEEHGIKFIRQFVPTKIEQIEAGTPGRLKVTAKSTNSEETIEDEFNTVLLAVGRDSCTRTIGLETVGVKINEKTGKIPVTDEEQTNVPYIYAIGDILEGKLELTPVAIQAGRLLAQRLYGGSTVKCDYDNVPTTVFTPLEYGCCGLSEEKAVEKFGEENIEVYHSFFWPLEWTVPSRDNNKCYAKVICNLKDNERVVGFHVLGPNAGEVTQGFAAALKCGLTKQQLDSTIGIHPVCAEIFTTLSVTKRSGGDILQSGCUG

[4] = tested on: free thiols in H. pylori; assay: Free thiol depletion assay; assay type: cell-based, Helicobacter pylori; settings: H. pylori treated with 5.0 μM for four hours

| SMILES | previously reported MIC [1] | logP [2] | half maximal inhibitory concentration (IC50) of TrxR [3] | free thiol concentration in comparison to untreated samples [4] |
| --- | --- | --- | --- | --- |
| CC(=O)OC[C@H]1O[C@@H]([S-])[C@H](OC(C)=O)[C@@H](OC(C)=O)[C@@H]1OC(C)=O.CCP(CC)CC.[Au+] [Compound 1, auranofin] | 1.2 µM | 0.56 | – | – |
| CC(=O)NC1C([S][Au][PH](C)(C)C)OC(CO)C(O)C1O (centres unmarked) [Compound 6] | – | −2.03 | inhibited TrxR most effectively | – |
| CC1(C)S[C@@H]2[C@H](NC(=O)[C@H](N)c3ccc(O)cc3)C(=O)N2[C@H]1C(=O)O [amoxicillin] | – | – | – | no differences in free thiol concentrations |
